The record followed here is patent publication US6068845A, “Inhibition of abnormal accumulation of extra-cellular matrices” (Institute for Advanced Skin Research Inc., priority 1996, dated 2000).

Experiment [1] deals with Human newborn dermal fibroblasts (NB1RBG). Kind of experiment: Inhibitory activity on the extracellular matrices production of fibroblasts with TGF-β, dye (Crystal Violet) staining method. The class given is cell-based. The settings on record: Fibroblast, 120 h. How it is done:
(§1) Human newborn dermal fibroblasts (NB1RBG) (obtained from the Institute of Physical and Chemical Research) was subcultured in DMEM medium containing 10 % fetal bovine serum for provision to the test.
(§2) 2×10^4 NB1RBG cells per well were incubated in flat-bottomed 96-well microtiter plates containing 100 μl/well of each of DMEM media each containing 1 % fetal bovine serum and containing one of the test samples and TGF-β (5 ng/ml), at 37° C.-5 % CO2 for 5 days. A group not containing any test sample or TGF-β was also prepared, and incubation thereof was carried out at the same time with the test groups. After the completion of the incubation, the flat-bottomed 96-well microtiter plates on which the adhered cells and the extracellular matrices were adhered were stained with the following two methods for evaluation, respectively.
First, the culture supernatants were removed, the wells were washed with phosphate-buffered physiological saline, 100 μl/well of 0.05 % Crystal Violet-20 % ethanol staining solution was added, and the mixtures were left alone at room temperature for 10 minutes. Then, the plates were washed with flowing water and air dried, the remaining Crystal Violet was dissolved with 100 μl/well of methanol, and the absorbance at O.D. 570-690 was measured by a plate reader. The inhibition percentages of the production of extracellular matrices in an unstimulating state and in a TGF-β-stimulating state were calculated according to the following equations.
The inhibition percentage of the production of extracellular matrices in an unstimulating state (%) [formula] The inhibition percentage of the production of extracellular matrices in a TGF-β-stimulating state (%) [formula] A: The absorbance of a group containing only the solvent with which the test sample was prepared, and not containing TGF-β.
B: The absorbance of a group containing a test sample, but not containing TGF-β.
C: The absorbance of a group containing the solvent with which the test sample was prepared, and TGF-β.
D: The absorbance of a group containing a test sample and TGF-β.

For experiment [2], the system named is dermal fibrosis induced with bleomycin. Kind of experiment: Inhibitory activity on the production of collagen in dermal fibrosis model induced with bleomycin. The class given is in vivo, Hos:hr-1 male hairless mice. The settings on record: bleomycin 10 mg/kg/day i.p. 10 days, day 30. As for the experimental part: Hos:hr-1 male hairless mice (5 weeks old) were used.
10 mg/kg/day portions of bleomycin were intraperitoneally administered to the hairless mice for 10 successive days. 0.1 ml Portions of ethanol solutions or Vaseline ointments of the Sophora flavescens AITON. extraction, the Rheum palmatum L. extract, o-phenanthroline and malotilate were applied onto the back skins every day from the start of the test, respectively. 30 Days later from the start of the test, the back skins were excised. The amounts of collagen in the excised skins were assayed using hydroxyproline amount as an index.
The inhibition percentage of dermal fibrosis with bleomycin was caluculated according to the following equation.
Inhibition percentage of dermal fibrosis (%) [formula] J: Hydroxyproline amount in the untreated group K: Hydroxyproline amount in the group of bleomycin administration+application of the base alone
L: Hydroxyproline amount in the group of bleomycin administration+application of the drug

Experiment [3] relates to Human newborn dermal fibroblasts (NB1RBG). Kind of experiment: Inhibitory activity on the extracellular matrices production of fibroblasts with TGF-β, collagen staining method (anti-human type I collagen antibody; type I collagen sedimentation). Type of experiment: cell-based. The settings on record: Fibroblast, 120 h.
From the text: Test samples used were Intin-koo extract (Preparation example 1), Forsythia suspensa VAHL. extract (Preparation example 2), Sophora flavescens AITON. extract (Preparation example 3), Rheum palmatum L. extract (Preparation example 4), Glycyrrhiza alabra L. var. glandulifera Regel et Herder extract (Preparation example 5), Goboosi extract with water (Preparation example 6), Goboosi extract with ethanol (Preparation example 7), zhimu extract (Preparation example 8), Dokkatu extract (Preparation example 9), mutong extract (Preparation example 10), soozyutu extract (Preparation example 11), o-phenanthroline (produced by Dojin Chemical Co.: special grade chemical), 2,2'-dipyridyl (produced by Aldrich Chemical Co.) and malotilate (extracted from Kantec tablet produced by Daiichi Pharmaceutical Co.).
as §1, §2
(b) Staining with anti-collagen antibody
First, the culture supernatants were removed, the wells were washed with phosphate-buffered physiological saline, and fixation was carried out with methanol under ice cooling for 10 minutes. Then, blocking was made with milk protein solution, Block Ace (produced by DAINIPPON PHARMACEUTICAL CO.), and rabbit anti-human type I collagen antibody (produced by CHEMICON CO.), biotin-labeled anti-rabbit immunoglobulin (produced by Amersham CO.) and avidin-biotin-labeled peroxidase complex (produced by Amersham CO.) were successively reacted to enzyme-label the sedimented type I collagen. 100 μl/well of 0.1 M citric acid phosphate buffer (pH 4.0) containing 2.5 mM 2,2'-azino-bis(3-ethylbenzothia-zoline-6-sulfate) (produced by SIGMA CO.) and 0.015 % H2 O2 was reacted therewith, and one hour later, absorbance at O.D. 415 was measured by a plate reader. The inhibition percetages of the type I collagen sedimentation in an unstimulating state and in a TGF-β-stimulating state were calculated according to the following equations.
The inhibition percentage of the production of extracellular matrices in an unstimulating state (%) [formula] The inhibition percentage of the production of extracellular matrices in TGF-β-stimulating state (%) [formula] E: The absorbance of a group containing only the solvent with which the test sample was prepared, and not containing TGF-β.
F: The absorbance of a group containing a test sample, but not containing TGF-β.
G: The absorbance of a group containing the solvent with which the test sample was prepared, and TGF-β.
H: The absorbance of a group containing a test sample and TGF-β.

Setting [4] is: 1 × 10^-4 M, TGF-β 5 ng/ml, 5 days, read-out: Inhibition percentage of the extracellular matrices production, dye staining method, TGF-β (+).
Setting [5] is: 1 × 10^-4 M, unstimulated, 5 days, read-out: Inhibition percentage of the extracellular matrices production, dye staining method, TGF-β (-).
The mark [6] stands for this setting: 1 × 10^-5 M, TGF-β 5 ng/ml, 5 days, read-out: Inhibition percentage of the extracellular matrices production, dye staining method, TGF-β (+).
[7] abbreviates: 1 × 10^-5 M, unstimulated, 5 days, read-out: Inhibition percentage of the extracellular matrices production, dye staining method, TGF-β (-).
Where [8] appears, read: 1 × 10^-6 M, TGF-β 5 ng/ml, 5 days, read-out: Inhibition percentage of the extracellular matrices production, dye staining method, TGF-β (+).
The mark [9] stands for this setting: 1 × 10^-6 M, unstimulated, 5 days, read-out: Inhibition percentage of the extracellular matrices production, dye staining method, TGF-β (-).
Setting [10] is: 1 × 10^-4 M, TGF-β 5 ng/ml, 5 days, read-out: Inhibition percentage of the extracellular matrices production, collagen staining method, TGF-β (+).
The mark [11] stands for this setting: 1 × 10^-4 M, unstimulated, 5 days, read-out: Inhibition percentage of the extracellular matrices production, collagen staining method, TGF-β (-).
Where [12] appears, read: 1 × 10^-5 M, TGF-β 5 ng/ml, 5 days, read-out: Inhibition percentage of the extracellular matrices production, collagen staining method, TGF-β (+).
The mark [13] stands for this setting: 1 × 10^-5 M, unstimulated, 5 days, read-out: Inhibition percentage of the extracellular matrices production, collagen staining method, TGF-β (-).
Where [14] appears, read: 1 × 10^-6 M, TGF-β 5 ng/ml, 5 days, read-out: Inhibition percentage of the extracellular matrices production, collagen staining method, TGF-β (+).
The mark [15] stands for this setting: 1 × 10^-6 M, unstimulated, 5 days, read-out: Inhibition percentage of the extracellular matrices production, collagen staining method, TGF-β (-).
The mark [16] stands for this setting: read-out: Inhibition percentage of the extracellular matrices production, dye staining method, TGF-β (+).
Where [17] appears, read: read-out: Inhibition percentage of the extracellular matrices production, dye staining method, TGF-β (-).
Setting [18] is: read-out: Inhibition percentage of the extracellular matrices production, collagen staining method, TGF-β (+).
Where [19] appears, read: read-out: Inhibition percentage of the extracellular matrices production, collagen staining method, TGF-β (-).

The structures appear in SMILES notation.

What is called inhibition is the relative decrease from the control value, in per cent. In the case of `CC(C)OC(=O)C(C(=O)OC(C)C)=C1SC=CS1` [Malotilate, malotilate], the inhibition at 100 µM in experiment [1] (setting [4]) was found to be 92%; in experiment [1] (setting [5]) it was 20%; in experiment [3] (setting [10]), 98%; in experiment [3] (setting [11]), 7%. Moreover, the inhibition at 10 µM in experiment [1] (setting [6]) was 53%; in experiment [1] (setting [7]) it was 23%; in experiment [3] (setting [12]), 68%; in experiment [3] (setting [13]) it was 6%. Besides, the inhibition at 1 µM in experiment [1] (setting [8]) is 18%; in experiment [1] (setting [9]) it was 21%; in experiment [3] (setting [14]), 20%; in experiment [3] (setting [15]) it was 9%. Besides, the “Hydroxyproline amount per weight of dried skin” value came to 1.66 ± 0.25 µg/mg in experiment [2] (5% applied to back skin daily) and 1.47 ± 0.19 µg/mg in experiment [2] (10% applied to back skin daily). Further, the entries for the “Inhibition percentage of dermal fibrosis” value in experiment [2] (5% applied to back skin daily) and in experiment [2] (10% applied to back skin daily) were 52.2% and 80.6%, respectively.

With `c1cnc2c(c1)ccc1cccnc12` [o-Phenanthroline, o-phenanthroline], the inhibition at 100 µM in experiment [1] (setting [4]) was 95%; in experiment [1] (setting [5]) it was 0%; in experiment [3] (setting [10]), 100%; in experiment [3] (setting [11]), 20%. Besides, the inhibition at 10 µM stood at 86% in experiment [1] (setting [6]), 0% in experiment [1] (setting [7]), 90% in experiment [3] (setting [12]) and 16% in experiment [3] (setting [13]). The inhibition at 1 µM is 1% in experiment [1] (setting [8]), 7% in experiment [1] (setting [9]), 27% in experiment [3] (setting [14]) and 11% in experiment [3] (setting [15]). Also, the “Hydroxyproline amount per weight of dried skin” value in experiment [2] (5% applied to back skin daily) stood at 1.72 ± 0.16 µg/mg; in experiment [2] (10% applied to back skin daily), 1.43 ± 0.10 µg/mg. Moreover, the entries for the “Inhibition percentage of dermal fibrosis” value in experiment [2] (5% applied to back skin daily) and in experiment [2] (10% applied to back skin daily) were 43.3% and 86.6%, respectively.

In the case of `c1ccc(-c2ccccn2)nc1` [2,2'-Dipyridyl, 2,2'-dipyridyl], the inhibition at 1 µM is 7% in experiment [1] (setting [16]), 5% in experiment [1] (setting [17]), 14% in experiment [3] (setting [18]) and 10% in experiment [3] (setting [19]). Moreover, the inhibition at 10 µM in experiment [1] (setting [16]) was 7%; in experiment [1] (setting [17]), 25%; in experiment [3] (setting [18]), 30%; in experiment [3] (setting [19]), 15%. Also, the inhibition at 100 µM in experiment [1] (setting [16]) turned out to be 84%; in experiment [1] (setting [17]) it was 44%; in experiment [3] (setting [18]), 77%; in experiment [3] (setting [19]) it was 18%.
